Data as given in ChEMBL document CHEMBL4024736, “Recent progress on the treatment of Ebola virus disease with Favipiravir and other related strategies” (Bioorg Med Chem Lett, 2017).
Converted amounts (≈) assume the structure as drawn.

How the values were obtained:
[1] = system: Ebolavirus; test: Antiviral activity against Ebolavirus E718 infected in Vero E6 cells assessed as effective dose after 6 days by neutral red stain based microscopic method; format: functional, Vero C1008
[2] = system: Ebolavirus; test: Antiviral activity against Ebolavirus assessed as reduction in viral titer; format: functional; settings: Orthoebolavirus
[3] = Antiviral activity against Respiratory syncytial virus A2 infected in Hep2 cells; format: functional, cell-based; settings: human respiratory syncytial virus, HEp-2
[4] = system: Ebolavirus; test: Antiviral activity against Ebolavirus E718 infected in A129 interferon alpha/beta receptor knockout immunodeficient mouse assessed as survival rate at 150 mg/kg, po administered twice daily for 14 days measured after 2 weeks post last dose relative to control; format: functional; settings: Orthoebolavirus, 336 h
[5] = system: Ebolavirus; test: Antiviral activity against Ebola virus Mayinga Zaire 1976 infected in IFNAR-/- C57BL/6 mouse assessed as survival at 300 mg/kg, po administered twice daily for 13 days measured after 3 weeks; format: functional; settings: Orthoebolavirus
[6] = Antiviral activity against Foot-and-mouth disease virus O/JPN/2000 by plaque reduction assay; format: functional
[7] = system: Ebolavirus; test: Antiviral activity against Ebola virus Mayinga Zaire 1976 infected in IFNAR-/- C57BL/6 mouse assessed as biochemical correlates of disease at 300 mg/kg, po administered twice daily; format: functional
[8] = system: Ebolavirus; test: Antiviral activity against Ebola virus Mayinga Zaire 1976 infected in IFNAR-/- C57BL/6 mouse at 300 mg/kg, po administered twice daily measured up to 6 days post infection; format: functional

In the case of `NC(=O)c1nc(F)cnc1O` [FAVIPIRAVIR], the ED [1] is reported as 400 µM, the IC50 [2] is reported as 67 µM and the IC50 [3] is reported as 41 µg/mL (≈ 261 µM). For the same molecule, the survival at 150 mg/kg [4] was 100%, the survival at 300 mg/kg [5] was 100% and the EC50 [6] was 12 µM. The Activity [7] was 20% and the Activity [8] was 100%.
